The subject of assay [1] is mice. The assay is described as follows: exploratory light/dark method in mice (two-compartment light-dark activity box). The class given is in vivo. As to conditions: for minimal effective dose: Mus musculus, read-out: Light/Dark: minimum effective dose; for Light/Dark: % time spent in lit area: at minimum effective dose.
Description: (§1) Anxiolytic properties were determined using an in vitro assay in which competive binding with the 5-HT1A specific agonist, [^3 H]8-hydroxy-2-(di-n-propylamino)tetralin(8-OH-DPAT) to 5HT1A receptors in the dog hippocampus membrane preparation is measured [Hall et al, J. Neurochem. […] Several compounds were also tested in mice is the exploratory light/dark method as described by Young and Johnson, Soc. […] 1988, 14, 207 in which the exploratory behavior of a mouse is a two-compartment light-dark activity box is monitored electrically and behavioral variables such as time spent in the lit versus dark compartments, rearings in either of the two compartments, number of transitions between the two compartments and other exploratory behavioral variables are recorded.
Assay [2] addresses T1, 5HT1A receptors (Canis lupus familiaris, UniProt Q6XXX9).
T1 sequence (Q6XXX9 1-423): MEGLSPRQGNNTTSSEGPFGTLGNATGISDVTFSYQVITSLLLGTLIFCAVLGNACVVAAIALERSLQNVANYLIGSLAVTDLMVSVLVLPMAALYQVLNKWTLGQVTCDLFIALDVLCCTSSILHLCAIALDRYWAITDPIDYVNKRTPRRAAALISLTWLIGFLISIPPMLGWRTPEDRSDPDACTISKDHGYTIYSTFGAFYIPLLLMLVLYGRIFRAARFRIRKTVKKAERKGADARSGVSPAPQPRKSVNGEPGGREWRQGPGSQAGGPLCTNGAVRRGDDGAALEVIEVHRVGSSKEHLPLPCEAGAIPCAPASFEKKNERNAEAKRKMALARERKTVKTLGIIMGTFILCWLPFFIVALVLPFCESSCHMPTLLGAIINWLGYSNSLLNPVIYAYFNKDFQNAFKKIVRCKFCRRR
The assay is described as follows: biochemical. Type of assay: binding, dog.
Description: as §1

The mark [3] stands for this setting: competitive binding vs [^3 H]8-OH-DPAT, dog hippocampus membrane, buspirone value is an average, read-out: 5HT1A IC50.

Molecules are shown by their SMILES. Where a name gives a salt, the structure may show the parent alone. Read-outs that look alike come from different tables or passages of the source.

With `C=CCOc1ccccc1N1CCN(CCCCC2CN(C)C(=O)O2)CC1` (stereo not drawn) [Example 12, 8-methyl-5-[4-[4-[2(2-propenyloxy)phenyl]-1-piperazinyl]butyl]-2-oxazolidinone hydrochloride hydrate (2:4:1)], in assay [1] (mice, IP), the minimal effective dose was found to be 1 mg/kg and the “Light/Dark: % time spent in lit area” value worked out at 66%. The IC50 in assay [2] (setting [3]) is 20 nM.

As for `CN1CC(CCCN2CCN(c3ccccc3O)CC2)OC1=O` (stereo not drawn) [Example 10, 5-[3-[4-(2-hydroxyphenyl)-1-piperazinyl]propyl]-3-methyl-2-oxazolidinone], the IC50 in assay [2] (setting [3]) came out at 110 nM.

Turning to `CCOc1ccccc1N1CCN(CCCCC2CN(c3ccccc3)C(=O)O2)CC1` (stereo not drawn) [Example 18, 5-[4-[4-(2-Ethoxyphenyl)-1-piperazinyl]butyl]-3-phenyl-2-oxazolidinone hydrochloride hydrate (2:4:1)], in assay [2] (setting [3]), the IC50 was 2 nM.

As to `CN1CC(CCCCN2CCN(c3ncccn3)CC2)OC1=O` (stereo not drawn) [Example 4, 3-Methyl-5-[4-[4-(2-pyrimidinyl)-1-piperazinyl]butyl]-2-oxazolidinone], the 50% inhibitory concentration (IC50) in assay [2] (setting [3]) came to 190 nM.

On to `O=C1OC(CCCCN2CCN(c3ccccc3)CC2)CN1c1ccccc1` (stereo not drawn) [Example 16, 3-Phenyl-5-[4-(4-phenyl-1-piperazinyl)butyl]-2-oxazolidinone], for which, in assay [2] (setting [3]), the half-maximal inhibitory concentration (IC50) was found to be 8.2 nM.

Regarding `O=C1OC(CCCN2CCN(c3ncccn3)CC2)CN1c1ccccc1` (stereo not drawn) [Example 20, 3-Phenyl-5-[3-[4-(2-pyrimidinyl)-1-piperazinyl]propyl]2-oxazolidinone], the IC50 in assay [2] (setting [3]) was 170 nM.

Consider `CN1CC(CCCCN2CCN(c3ccccn3)CC2)OC1=O` (stereo not drawn) [Example 2, 3-Methyl-5-[4-[4-(2-pyridinyl)-1-piperazinyl]butyl]-2-oxazolidinone], for which, in assay [1] (mice, IP), the minimal effective dose was 3.16 mg/kg and the “Light/Dark: % time spent in lit area” value is 53%. Also, the IC50 in assay [2] (setting [3]) was 61 nM.

On to `COc1ccccc1N1CCN(CCCC2CN(c3ccccc3)C(=O)O2)CC1` (stereo not drawn) [Example 23, 5-[3-[4-(2-Methoxyphenyl)-1-piperazinyl]propyl]-3-phenyl-2-oxazolidinone hydrochloride hydrate (1:2)], for which the IC50 in assay [2] (setting [3]) came out at 11 nM.

With `COc1ccccc1N1CCN(CCCCC2CN(C)C(=O)O2)CC1.Cl.Cl` (stereo not drawn) [Example 3, 5-[4-[4-(2-Methoxyphenyl)-1-piperazinyl]butyl]-3-methyl-2-oxazolidinone dihydrochloride], in assay [1] (mice, IP), the minimal effective dose came out at 3.16 mg/kg and the “Light/Dark: % time spent in lit area” value is 53%. The half-inhibitory concentration (IC50) in assay [2] (setting [3]) worked out at 15 nM.

Turning to `O=C1OC(CCCN2CCN(c3ccccn3)CC2)CN1c1ccccc1` (stereo not drawn) [Example 19, 3-Phenyl-5-[3-[4-(2-pyridinyl)-1-piperazinyl]propyl]-2-oxazolidinone], the half-maximal inhibitory concentration (IC50) in assay [2] (setting [3]) was determined as 57 nM.

Take `CN1CC(CCCN2CCN(c3ccccn3)CC2)OC1=O` (stereo not drawn) [Example 6, 3-Methyl-5-[3-[4-(2-pyridinyl)-1-piperazinyl]propyl]-2-oxazolidinone hydrochloride hydrate (2:4:1)]: the IC50 in assay [2] (setting [3]) came to 110 nM.

On to `COc1ccccc1N1CCN(CCCCC2CN(c3ccccc3)C(=O)O2)CC1` (stereo not drawn) [Example 13, 5-[4-[4-(2-Methoxyphenyl)-1-piperazinyl]butyl]-3-phenyl-2-oxazolidinone hydrochloride hydrate (2:2:1)], for which the IC50 in assay [2] (setting [3]) came to 2.2 nM.

Regarding `O=C1OC(CCCN2CCN(c3ccccc3)CC2)CN1c1ccccc1` (stereo not drawn) [Example 22], the IC50 in assay [2] (setting [3]) worked out at 50 nM.

As to `CN1CC(CCCN2CCN(c3ncccn3)CC2)OC1=O` (stereo not drawn) [Example 7, 3-Methyl-5-[3-[4-(2-pyrimidinyl)-1-piperazinyl]propyl]-2-oxazolidinone], in assay [2] (setting [3]), the IC50 is 510 nM.

In the case of `CN1CC(CCCCN2CCN(c3ccccc3O)CC2)OC1=O` (stereo not drawn) [Example 11, 5-[4-[4-(2-Hydroxyphenyl)-1-piperazinyl]butyl]-3-methyl-2-oxazolidinone], in assay [2] (setting [3]), the 50% inhibitory concentration (IC50) was found to be 40 nM.

In the case of `O=C1CC2(CCCC2)CC(=O)N1CCCCN1CCN(c2ncccn2)CC1` [Buspirone, buspirone, reference compound], the minimal effective dose in assay [1] (ip) and in assay [1] (po) was 5.62 mg/kg each time. For the same molecule, the “Light/Dark: % time spent in lit area” value in assay [1] (mice, IP) stood at 51%; in assay [1] (mice, PO), 54%. Further, half-maximal inhibition in assay [2] (IC50) was put at 13.2 nM.

Turning to `O=C1OC(CCCCN2CCN(c3ncccn3)CC2)CN1c1ccccc1` (stereo not drawn) [Example 15, 3-Phenyl-5-[4-[4-(2-pyrimidinyl)-1-piperazinyl]butyl]-2-oxazolidinone], in assay [2] (setting [3]), the IC50 is 29 nM.

With `CCOc1ccccc1N1CCN(CCCCC2CN(C)C(=O)O2)CC1` (stereo not drawn) [Example 9, 5-[4-[4-(2-Ethoxyphenyl)-1-piperazinyl]butyl]-3-methyl-2-oxazolidinone dihydrochloride], in assay [2] (setting [3]), the IC50 is 16 nM.

As for `CCOc1ccccc1N1CCN(CCCC2CN(c3ccccc3)C(=O)O2)CC1` (stereo not drawn) [Example 21, 5-[3-[4-(2-Ethoxyphenyl)-1-piperazinyl]propyl]-3-phenyl-2-oxazolidinone hydrochloride hydrate (2:4:1)], in assay [2] (setting [3]), the IC50 turned out to be 18 nM.

On to `O=C1OC(CCCCN2CCN(c3ccccn3)CC2)CN1c1ccccc1` (stereo not drawn) [Example 14, 3-Phenyl-5-[4-[4-(2-pyridinyl)-1-piperazinyl]butyl]-2-oxazolidinone], for which the half-maximal inhibitory concentration (IC50) in assay [2] (setting [3]) was 7.7 nM.

Regarding `CCOc1ccccc1N1CCN(CCCC2CN(C)C(=O)O2)CC1` (stereo not drawn) [Example 8, 5-[3-[4-(2-Ethoxyphenyl)-1-piperazinyl]propyl]-3-methyl-2-oxazolidinone], the IC50 in assay [2] (setting [3]) was 22 nM.

Consider `O=C1OC(CCCCN2CCN(c3ccccc3O)CC2)CN1c1ccccc1` (stereo not drawn) [Example 17, 5-[4-[4-(2-hydroxyphenyl)-1-piperazinyl]butyl]-3-phenyl-2-oxazolidinone], for which the IC50 in assay [2] (setting [3]) amounted to 15 nM.

In the case of `COc1ccccc1N1CCN(CCCC2CN(C)C(=O)O2)CC1` (stereo not drawn) [Example 5, 5-[3-[4-(2-Methoxyphenyl)-1-piperazinyl]propyl]-3-methyl-2-oxazolidinone hydrochloride hydrate (2:2:3)], the IC50 in assay [2] (setting [3]) worked out at 29 nM.

As for `CN1CC(CCCCN2CCN(c3ccccc3)CC2)OC1=O` (stereo not drawn) [Example 1, 3-Methyl-5-[4-(4-phenyl-1-piperazinyl)butyl]-2-oxazolidinone], in assay [1] (mice, IP), the minimal effective dose came to 10 mg/kg and the “Light/Dark: % time spent in lit area” value came to 56%. Also, the IC50 in assay [2] (setting [3]) was 59 nM.

As usually defined, the IC50 is the concentration that gives 50% inhibition.

The values above are taken from patent US5162322A, “Method of treating anxiety with 5-[(4-aryl or heteroaryl-1-piperazinyl]alkyl)-2-oxazolidinones” (A. H. Robbins Company, Incorporated, priority 1991, dated 1992).
